Measured values: patent publication US20050096254A1, “Peptide deformylase activated prodrugs” (priority 2002, published 2005)
≈ marks a conversion by molar mass, not a printed value.

Tests used:
Assay in all cases: MIC susceptibility testing (modified NCCLS)
Assay type in all cases: cell-based
[1] = tested on: E. cloacae
Procedure: (§1) The NCCLS (National Committee for Clinical Laboratory Standards), method to determine MIC's of antimicrobial compounds is modified for high-throughput screening. All stocks of tested compounds are prepared in either water or in DMSO depending on solubility. At the highest concentration, DMSO content should not exceed 0.5%. Briefly, twenty 2-fold serial dilutions of test compounds from the highest concentration is made in a 384-well microtiter plate. Each well is inoculated with testing bacteria in broth to a final concentration of approximately 1-1.5×10^6 cells/ml. Bacterial growth is determined by the increase of optical density at 600 nm using a microplate reader (Tecan SpectraFluor Plus).

[2] = tested on: H. influenzae
Procedure: as §1

[3] = tested on: E. aerogenes
Procedure: as §1

[4] = tested on: E. faecalis
Procedure: as §1

[5] = tested on: M. catarrhalis
Procedure: as §1

[6] = tested on: S. epidermidis
Procedure: as §1

[7] = tested on: E. coli; settings: Table 4, E. coli
Procedure: as §1

[8] = tested on: K. pneumoniae
Procedure: as §1

## CSCC[C@H](NC=O)C(=O)N[C@@H](CC(C)C)C(=O)Oc1cc(Cl)ccc1Oc1ccc(Cl)cc1Cl [Compound #2]
[1]; Table 3, E. cloacae ATCC 23355, Exp. #1
  MIC: 0.5 µg/mL (≈ 0.89 µM)
[1]; Table 3, E. cloacae ATCC 23355, Exp. #2
  MIC: 0.5 µg/mL (≈ 0.89 µM)
[1]; Table 4, E. cloacae ATCC 23355, Exp. #1
  MIC: 16 µg/mL (≈ 28.5 µM)
[1]; Table 4, E. cloacae ATCC 23355, Exp. #2
  MIC: 1 µg/mL (≈ 1.78 µM)
[2]; Table 4, H. influenzae ATCC 33533, Exp. #1
  MIC: 64 µg/mL (≈ 114 µM)
[2]; Table 4, H. influenzae ATCC 33533, Exp. #2
  MIC: ≧64 μg/ml
[3]; Table 3, E. aerogenes ATCC 13048, Exp. #1
  MIC: 1 µg/mL (≈ 1.78 µM)
[3]; Table 3, E. aerogenes ATCC 13048, Exp. #2
  MIC: 1 µg/mL (≈ 1.78 µM)
[3]; Table 3, E. aerogenes ATCC 29009, Exp. #1
  MIC: 0.25 µg/mL (≈ 0.445 µM)
[3]; Table 3, E. aerogenes ATCC 29009, Exp. #2
  MIC: ≦0.125 μg/ml
[3]; Table 3, E. aerogenes ATCC 29751, Exp. #1
  MIC: 2 µg/mL (≈ 3.56 µM)
[3]; Table 3, E. aerogenes ATCC 29751, Exp. #2
  MIC: 1 µg/mL (≈ 1.78 µM)
[3]; Table 3, E. aerogenes ATCC 35028, Exp. #1
  MIC: 4 µg/mL (≈ 7.12 µM)
[3]; Table 3, E. aerogenes ATCC 35028, Exp. #2
  MIC: 2 µg/mL (≈ 3.56 µM)
[3]; Table 4, E. aerogenes ATCC 35028, Exp. #1
  MIC: 32 µg/mL (≈ 56.9 µM)
[3]; Table 4, E. aerogenes ATCC 35028, Exp. #2
  MIC: 16 µg/mL (≈ 28.5 µM)
[4]; Table 4, E. faecalis ATCC 49757, Exp. #1
  MIC: 64 µg/mL (≈ 114 µM)
[4]; Table 4, E. faecalis ATCC 49757, Exp. #2
  MIC: 32 µg/mL (≈ 56.9 µM)
[4]; Table 4, E. faecalis ATCC 700802, Exp. #1
  MIC: 32 µg/mL (≈ 56.9 µM)
[4]; Table 4, E. faecalis ATCC 700802, Exp. #2
  MIC: 32 µg/mL (≈ 56.9 µM)
[5]; Table 3, M. catarrhalis ATCC 43627, Exp. #1
  MIC: ≦0.125 μg/ml
[5]; Table 3, M. catarrhalis ATCC 43627, Exp. #2
  MIC: ≦0.125 μg/ml
[5]; Table 3, M. catarrhalis ATCC 43628, Exp. #1
  MIC: ≦0.125 μg/ml
[5]; Table 3, M. catarrhalis ATCC 43628, Exp. #2
  MIC: ≦0.125 μg/ml
[5]; Table 3, M. catarrhalis ATCC 49265, Exp. #1
  MIC: ≦0.125 μg/ml
[5]; Table 3, M. catarrhalis ATCC 49265, Exp. #2
  MIC: ≦0.125 μg/ml
[5]; Table 3, M. catarrhalis ATCC 51584, Exp. #1
  MIC: ≦0.125 μg/ml
[5]; Table 3, M. catarrhalis ATCC 51584, Exp. #2
  MIC: ≦0.125 μg/ml
[6]; Table 3, S. epidermidis ATCC 27626, Exp. #1
  MIC: ≦0.125 μg/ml
[6]; Table 3, S. epidermidis ATCC 27626, Exp. #2
  MIC: ≦0.125 μg/ml
[6]; Table 3, S. epidermidis ATCC 700565, Exp. #1
  MIC: 2 µg/mL (≈ 3.56 µM)
[6]; Table 3, S. epidermidis ATCC 700565, Exp. #2
  MIC: 2 µg/mL (≈ 3.56 µM)
[6]; Table 3, S. epidermidis ATCC 700566, Exp. #1
  MIC: ≦0.125 μg/ml
[6]; Table 3, S. epidermidis ATCC 700566, Exp. #2
  MIC: ≦0.125 μg/ml
[6]; Table 3, S. epidermidis ATCC 700578, Exp. #1
  MIC: 0.5 µg/mL (≈ 0.89 µM)
[6]; Table 3, S. epidermidis ATCC 700578, Exp. #2
  MIC: 0.25 µg/mL (≈ 0.445 µM)
[6]; Table 3, S. epidermidis ATCC 700583, Exp. #1
  MIC: ≦0.125 μg/ml
[6]; Table 3, S. epidermidis ATCC 700583, Exp. #2
  MIC: ≦0.125 μg/ml
[7]; Exp. #1
  MIC: 16 µg/mL (≈ 28.5 µM)
[7]; Exp. #2
  MIC: 16 µg/mL (≈ 28.5 µM)
[8]; Table 3, K. pneumoniae ATCC 51503, Exp. #1
  MIC: 8 µg/mL (≈ 14.2 µM)
[8]; Table 3, K. pneumoniae ATCC 51503, Exp. #2
  MIC: 8 µg/mL (≈ 14.2 µM)
[8]; Table 3, K. pneumoniae ATCC 51504, Exp. #1
  MIC: 1 µg/mL (≈ 1.78 µM)
[8]; Table 3, K. pneumoniae ATCC 51504, Exp. #2
  MIC: 2 µg/mL (≈ 3.56 µM)
[8]; Table 3, K. pneumoniae ATCC 700721, Exp. #1
  MIC: 2 µg/mL (≈ 3.56 µM)
[8]; Table 3, K. pneumoniae ATCC 700721, Exp. #2
  MIC: 2 µg/mL (≈ 3.56 µM)
[8]; Table 4, K. pneumoniae ATCC 51503, Exp. #1
  MIC: 4 µg/mL (≈ 7.12 µM)
[8]; Table 4, K. pneumoniae ATCC 51503, Exp. #2
  MIC: 8 µg/mL (≈ 14.2 µM)
[8]; Table 4, K. pneumoniae ATCC 700721, Exp. #1
  MIC: 4 µg/mL (≈ 7.12 µM)
[8]; Table 4, K. pneumoniae ATCC 700721, Exp. #2
  MIC: 8 µg/mL (≈ 14.2 µM)
